Test results: patent US8445501B2, “Substituted 7-carboxamido-pyrrolo[3,2-d]pyrimidines” (Takeda GmbH, priority 2008, dated 2013)

Biological target: T1, human PDE5 (Homo sapiens, UniProt O76074)
T1 construct: from tissue; host or cells: platelets from fresh blood of human donors (lysate, 10,000 g supernatant)
Assay: Inhibition of the type 5 phosphodiesterase (PDE5) activity, modified SPA test with platelet lysate
Format: biochemical
Settings: PDE5 from human platelet lysate, 0.5 μM cGMP
Description: Method for Measuring Inhibition of the Type 5 Phosphodiesterase (PDE5) Activity:
As a source for human PDE5, platelets are used. For that purpose, 150 ml fresh blood from human donors anticoagulated with citrate [final concentration 0.3% (w/v)] is centrifuged at 200 g for 10 min to obtain the so-called platelet-rich-plasma (PRP) as a supernatant. 1/10 volume of ACD solution (85 mM Na3-citrate, 111 mM D-glucose, 71 mM citric acid, pH 4.4) is added to 9/10 volume of PRP. After centrifugation (1,400 g, 10 min) the cell pellet is resuspended in 3 ml homogenization buffer (NaCl 140 mM, KCl 3.8 mM, EGTA (ethylene glycol tetraacetic acid) 1 mM, MgCl2 1 mM, Tris-HCl 20 mM, beta-mercaptoethanol 1 mM, pH 8.2) plus protease-inhibitor mix giving rise to the final concentrations of 0.5 mM Pefablock (Roche), 10 μM Leupeptin, 5 μM Trypsininhibitor, 2 mM Benzamidin and 10 μM Pepstatin A. The suspension is sonified and thereafter centrifuged for 15 min at 10,000 g. The resulting supernatant (platelet lysate) is used for enzymatic testings.
PDE5A1 activity is inhibited by the compounds of the invention in a modified SPA (scintillation proximity assay) test, supplied by Amersham Biosciences (see procedural instructions “phosphodiesterase [3H]cAMP SPA enzyme assay, code TRKQ 7090”), carried out in 96-well microtitre plates (MTP's). The test volume is 100 μl and contains 20 mM Tris buffer (pH 7.4), 0.1 mg of BSA (bovine serum albumin)/ml, 5 mM Mg^2+, 1 μM motapizone, 10 nM PDE2 inhibitor 2-(3,4-dimethoxybenzyl)-7-[(1R,2R)-2-hydroxy-1-(2-phenylethyl)propyl]-5-methylimidazo[5,1-f][1,2,4]triazin-4(3H)-one, 0.5 μM cGMP (cyclic guanosine monophosphate) (including about 50,000 cpm of [3H]cGMP as a tracer), 1 μl of the respective compound dilution in dimethylsulfoxide (DMSO) and sufficient PDE5-containing platelet lysat (10,000×g supernatant, see above) to ensure that 10-20 wt % of the cGMP is converted under the said experimental conditions. […] After a preincubation of 5 min at 37° C., the reaction is started by adding the substrate (cGMP) and the assay is incubated for a further 15 min; after that, it is stopped by adding SPA beads (50 μl). In accordance with the manufacturer's instructions, the SPA beads had previously been resuspended in water, but are then diluted 1:3 (v/v) in water; the diluted solution also contains 3 mM […] (IBMX) to ensure a complete PDE activity stop. After the beads have been sedimented (>30 min), the MTP's are analyzed in commercially available luminescence detection de-vices. The corresponding IC50 values of the compounds for the inhibition of PDE activity are deter-mined from the concentration-effect curves by means of non-linear regression.

Question: With `CCOC(=O)N1CC[C@H](NC(=O)c2c[nH]c3c(-c4c(OCC5CC5)ccc5c4OCO5)ncnc23)C1` [Example 22, (S)-3-({1-[4-(5-Cyclopropylmethoxy-benzo[1,3]dioxol-4-yl)-5H-pyrrolo[3,2-d]pyrimidin-7-yl]-methanoyl}-amino)-pyrrolidine-1-carboxylic acid ethyl ester] as the compound, how does the IC50 read?
Answer: 0.49 nM

Question: How did the IC50 turn out when `O=CN1CCC(CNC(=O)c2c[nH]c3c(-c4c(OCC5CC5)ccc5c4OCO5)ncnc23)CC1` [Example 23, 4-(5-Cyclopropylmethoxy-benzo[1,3]dioxol-4-yl)-5H-pyrrolo[3,2-d]pyrimidine-7-carboxylic acid (1-formyl-piperidin-4-ylmethyl)-amide] was run?
Answer: 0.447 nM

Question: With `CC(=O)N1CCC(CNC(=O)c2c[nH]c3c(-c4c(OCC5CC5)ccc5c4OCO5)ncnc23)CC1` [Example 24, 4-(5-Cyclopropylmethoxy-benzo[1,3]dioxol-4-yl)-5H-pyrrolo[3,2-d]pyrimidine-7-carboxylic acid (1-acetyl-piperidin-4-ylmethyl)-amide] as the compound, how does the IC50 read?
Answer: 0.302 nM

Question: With `O=C(NCC1CCN(C(=O)C2CC2)CC1)c1c[nH]c2c(-c3c(OCC4CC4)ccc4c3OCO4)ncnc12` [Example 25, 4-(5-Cyclopropylmethoxy-benzo[1,3]dioxol-4-yl)-5H-pyrrolo[3,2-d]pyrimidine-7-carboxylic acid [1-(1-cyclopropyl-methanoyl)-piperidin-4-ylmethyl]-amide] as the compound, how does the IC50 read?
Answer: 0.24 nM

Question: Which IC50 does the source give for `COCC(=O)N1CCC(CNC(=O)c2c[nH]c3c(-c4c(OCC5CC5)ccc5c4OCO5)ncnc23)CC1` [Example 26, 4-(5-Cyclopropylmethoxy-benzo[1,3]dioxol-4-yl)-5H-pyrrolo[3,2-d]pyrimidine-7-carboxylic acid [1-(2-methoxy-ethanoyl)-piperidin-4-ylmethyl]-amide] here?
Answer: 0.457 nM

Question: `CCOC(=O)N1CCC(CNC(=O)c2c[nH]c3c(-c4c(OCC5CC5)ccc5c4OCO5)ncnc23)CC1` [Example 27, 4-[({1-[4-(5-Cyclopropylmethoxy-benzo[1,3]dioxol-4-yl)-5H-pyrrolo[3,2-d]pyrimidin-7-yl]-methanoyl}-amino)-methyl]-piperidine-1-carboxylic acid ethyl ester] was tested. Which IC50 did it give?
Answer: 0.372 nM

Question: Which IC50 does the source give for `O=CN1CCCC(CNC(=O)c2c[nH]c3c(-c4c(OCC5CC5)ccc5c4OCO5)ncnc23)C1` (centres unmarked) [Example 28, 4-(5-Cyclopropylmethoxy-benzo[1,3]dioxol-4-yl)-5H-pyrrolo[3,2-d]pyrimidine-7-carboxylic acid (1-formyl-piperidin-3-ylmethyl)-amide] here?
Answer: 0.692 nM

Question: How did the IC50 turn out when `CCC(=O)N1CCCC(CNC(=O)c2c[nH]c3c(-c4c(OCC5CC5)ccc5c4OCO5)ncnc23)C1` (centres unmarked) [Example 29, 4-(5-Cyclopropylmethoxy-benzo[1,3]dioxol-4-yl)-5H-pyrrolo[3,2-d]pyrimidine-7-carboxylic acid (1-propionyl-piperidin-3-ylmethyl)-amide] was run?
Answer: 0.275 nM

Question: `COCC(=O)N1CCCC(CNC(=O)c2c[nH]c3c(-c4c(OCC5CC5)ccc5c4OCO5)ncnc23)C1` (centres unmarked) [Example 30, 4-(5-Cyclopropylmethoxy-benzo[1,3]dioxol-4-yl)-5H-pyrrolo[3,2-d]pyrimidine-7-carboxylic acid [1-(2-methoxy-acetyl)piperidin-3-ylmethyl]-amide] was tested. Which IC50 did it give?
Answer: 0.479 nM

Question: For `CCOC(=O)N1CCCC(CNC(=O)c2c[nH]c3c(-c4c(OCC5CC5)ccc5c4OCO5)ncnc23)C1` (centres unmarked) [Example 31, 3-({[4-(5-Cyclopropylmethoxy-benzo[1,3]dioxol-4-yl)-5H-pyrrolo[3,2-d]pyrimidine-7-carbonyl]-amino}-methyl)-piperidine-1-carboxylic acid ethyl ester], which IC50 is on record?
Answer: 0.224 nM

Question: How did the IC50 turn out when `O=CN1CCC(CNC(=O)c2c[nH]c3c(-c4c(OCC5CC5)ccc5c4OCO5)ncnc23)C1` (centres unmarked) [Example 32, 4-(5-Cyclopropylmethoxy-benzo[1,3]dioxol-4-yl)-5H-pyrrolo[3,2-d]pyrimidine-7-carboxylic acid (1-formyl-pyrrolidin-3-ylmethyl)-amide] was run?
Answer: 1.1 nM
